Assay results published in patent publication US20240148728A1, “NOVEL METHOD TO BLOCK IN[…] DEATH AND IL-1BETA SECRETION CAUSED BY […] UV I[…] GENETIC AND CHEMICAL INHIBITORS OF ZAKA AND THE NLRP1 INFLAMMASOME” (priority 2021, published 2024).

What was measured:
293T-ASC-GFP-NLRP1 = assay type: cell-based, human
N-TERT cells = assay: Secreted IL1β / inflammasome activation in N-TERT cells; assay type: cell-based, human
Experimental: To measure secreted cytokine and chemokine levels a human IL1β enzyme linked immunosorbent assay (ELISA) kit (BD, #557953), human IL-18 ELISA kit (MBL, #7620) or an Immune Monitoring 65-Plex Human ProcartaPlex Panel (EPX650-10065-901) were used according to manufacturer's protocols. Further analysis of Luminex or ELISA profiling of samples was performed using heatmap and PCA analysis on Clustervis (biitdotcsdotutdotee/clustvis/) [Somani et al., Proceeding of SSIC (2019)].
(§1) The following antibodies were used in this study: cleaved PARP1 (Abclonal, #WH162766), Cleaved CASP3 (Abclonal, #WH154646), Full length GSDMD-FL (Abcam, #ab210070), IL1β p17 specific (CST, #83186S), CARD8 (Abcam, CARD8-NT: ab19485, CARD8-CT: ab241186), DPP9 (Abcam, ab226334), c-Myc (Santa Cruz Biotechnology, #sc-40), HA tag (Santa Cruz Biotechnology, #sc-805), GAPDH (Santa Cruz Biotechnology, #sc-47724), ASC (Adipogen, #AL-177), CASP1 (Santa Cruz Biotechnology, #sc-622), 11_1B (R&D systems, #AF-201), FLAG (SigmaAldrich, #F3165), NLRP1 (R&D systems, #AF6788), IL18 (Abcam ab207324), cleaved GSDMD-NT (Asp275) (Cell Signaling Technology, #36425), RPL31 (Abclonal, #WH162766), CASP7 (Abcam, ab255818), CASP8 (Abcam, ab32397), cleaved CASP3 (Cell Signaling Technology, #9664). All horseradish peroxidase (HRP)— conjugated secondary antibodies were purchased from Jackson Immunoresearch (goat anti-mouse IgG: 115-035-166; goat anti-rabbit IgG: 111-035-144; and donkey anti-goat IgG: 705-005-147). Blue-Native PAGE was carried out using the Native-PAGE system (ThermoFisher) with 10-20 μg of total lysate. For SDS-PAGE using whole cell lysates, cells were resuspended in tris-buffered saline 1% NP-40 with protease inhibitors (Thermo Scientific, #78430). Protein concentration was determined using the Bradford assay (Thermo Scientific, #23200) and […] of protein loaded, a part from cleaved GSDMD-NT visualisation where […] of protein was used. All primary antibodies were used at 250 ng/ml. Visualisation of ASC oligomerization was previously described (Robinson et al., 2020). For analysis of IL1β and IL-18 cleavage in the media by immunoblotting, samples were concentrated using filtered centrifugation (Merck, Amicon Ultra, #UFC5003BIK). Protein samples were run using immunoblotting, and then visualized using a ChemiDoc Imaging system (Bio-Rad). PhosTag SDS-PAGE was carried out using homemade 10% SDS-PAGE gel, with addition of Phos-tag Acrylamide (Wako Chemicals, AAL-107) to a final concentration of 30 μM and manganese chloride(II) (Sigma-Aldrich, #63535) to 60 μM.

[1] = test system: 3D human organotypic skin; assay: 3D organotypic skin histology and cleaved GSDMD-NT immunostaining; assay type: cell-based
Experimental: Organotypic cultures were generated by adapting a previously described protocol (Arnette et al., 2016). Briefly, 2 ml of collagen I (4 mg/ml; Corning, #354249) mixed with 7.5×10^5 human fibroblasts were allowed to polymerize over 1-m1 acellular collagen I in 6-well culture inserts (Falcon, #353102) placed in 6-well deep well plate (Falcon, #355467). After 24 hours, 1×10^6 primary human keratinocytes were seeded into the inserts and kept submerged in a 3:1 DMEM (Hyclone, #SH30243.01) and F12 (Gibco, #31765035) mixture with 10% FBS (Hyclone, #SV30160.03), 100 U/ml penicillin-streptomycin (Gibco, #15140122), 10 μM Y-27632 (Tocris, #1254), 10 ng/ml EGF (Sigma-Aldrich, #E9644), 1×10^−10 M cholera toxin (Enzo, #BML-G117-001), 0.4 μg/ml hydrocortisone (Sigma-Aldrich, #H0888), 0.0243 mg/ml adenine (Sigma-Aldrich, #A2786), 5 μg/ml insulin (Sigma-Aldrich, #12643), 5 μg/ml transferrin (Sigma-Aldrich, #T2036) and 2×10^−9 M 3,3′,5′-triiodo-L-thyronine (Sigma-Aldrich, #T6397). After another 24 hours, the organotypic cultures were then raised at the air-liquid interface and fed with the submerged media (without Y-27632 and EGF) below the insert to induce epidermal differentiation. The air-lifting medium was replaced every 2 days and treatments began 10-14 days after airlifting. Organotypic cultures were then harvested 24 hours after treatment and formalin fixed for 24 hours. Fixed tissues were then embedded into wax for histological purposes.
For immunohistochemistry staining of cleaved N-terminal GSDMD a previously established protocol with modifications was used [Wang et al., Cell 180:941-955.e20 (2020)]. Briefly, 5 μm formalin fixed and paraffin embedded sections were deparaffinized and rehydrated through a series of alcohol. The sections were then rehydrated in an antigen retrieval buffer (Dako, Tris-EDTA, pH 9). Sections were then blocked in goat serum for 20 mins at RT before primary antibody incubated overnight at 4° C. Immunostaining was visualised using DAB substrate and chromogen detection kit (Dako, #K3468). Sections were then counterstained with Myer's Hematoxylin.

NLRP1-NT = assay: NLRP1 cleavage / NLRP1-NT level by immunoblot; assay type: cell-based, human
Description: as §1

ASC = assay: Phosphorylation of inflammasome adaptor ASC; assay type: cell-based, human; conditions: data not shown
[2] = test system: primary bronchial epithelial cells (NHBEs); assay: Inflammasome activation and pyroptosis in primary bronchial epithelial cells; assay type: cell-based, human; conditions: ANS 1 μM
[3] = test system: mouse bone marrow derived macrophages (BMDMs); assay: ANS-triggered IL1β secretion and cell death in mouse bone marrow derived macrophages; assay type: cell-based
MV4-11 = assay: GSDMD cleavage in MV4-11 leukemia cell line; assay type: cell-based, human; conditions: CARD8-activating cell line

COc1ccc(C[C@H]2NC[C@H](O)[C@H]2OC(C)=O)cc1 [ANS, Anisomycin]
ASC-GFP speck formation, screen of cytotoxic chemicals (293T-ASC-GFP-NLRP1; ANS 1 μM, LTM 1 μg/ml, STS 1 μM): identified two hits | percentage of cells with ASC-GFP specks compared with VbP (293T-ASC-GFP-NLRP1; equivalent concentrations): to a greater extent than VbP at equivalent concentrations | dose dependence of percentage of cells with ASC-GFP specks (293T-ASC-GFP-NLRP1; increasing levels of ANS): in a dose-dependent manner (FIG. 2B) up to 20 μM | IL1β secretion and pyroptotic death in ZAKα KO cells (N-TERT cells; ZAKα KO N-TERT cells): completely resistant | IL1β secretion at high concentration versus lower doses (N-TERT cells; ultra-high doses of ANS): significant decrease in IL1β secretion as compared to lower doses | epidermal dyskeratosis ([1]; H&E, 24 hours after treatment): caused striking epidermal dyskeratosis | cleaved GSDMD N-terminal fragment at the cell membrane ([1]; immunostaining): prominently enriched at the cell membrane | specific cleavage of overexpressed NLRP1 (smaller bands) (NLRP1-NT; ANS-treated cells): did not observe any smaller bands | level of intact NLRP1-NT (NLRP1-NT; NLRP1 KO keratinocytes rescued with full-length NLRP1): caused a significant reduction in the level of intact NLRP1-NT | phosphorylation of ASC (ASC): not phosphorylated | canonical inflammasome activation and pyroptosis [2]: underwent canonical inflammasome activation and pyroptosis | IL1β secretion and cell death, wild-type versus Nlrp1a/b KO [3]: did not differ between wild-type and NIrp1a/b KO | GSDMD cleavage (MV4-11): did not display detectable GSDMD cleavage
